Source: patent US20210267929A1, “COMPOSITIONS AND METHODS FOR TREATMENT OF ORAL ULCERATION AND ORAL MUCOSITIS” (CelaCare Technologies, Inc., priority 2018, published 2021)
In brackets after ≈: the same amount, converted by molar mass.

Assays:
[1] = test system: Candida parapsilosis ATCC 22019; conditions: expected control range; cited from earlier work
[2] = test system: Candida albicans ATCC 24433; assay: Broth microdilution MIC (EUCAST), oral rinse vs marketed antifungals; type: cell-based; conditions: 35° C., 48 hours, at least 50% OD530 inhibition; for MIC: ATCC24433, RPMI + 2% glucose, read-out: MIC (mg/L) Mean
Description: (§1) The purpose of this experiment was to determine the potency of one embodiment of the oral rinse on different Candida species, namely Candida albicansATCC 10231 and ATCC 24433, Candida glabrataATCC 15126, Candida krusei (Issechenkia orientalis)ATCC 6258, Candida parapsilosisATCC 22019, and Candida tropicalisATCC 1369, to determine the minimum inhibitory concentration (MIC) of the oral rinse on each species. The oral rinse was compared to current antifungal treatments on the market.
(§2) The embodiment of the oral rinse 150528 tested in this experiment included 10 μg/mL silver citrate complex, 3 mg/mL acemannan, 5 mg/mL Disodium EDTA, 0.1 mg/mL Hyaluronic acid, 2 mg/mL PVP, 3.5 mg/ml of masking and cherry flavor, purified water, pH adjustment with tris(hydroxymethyl)aminomethane to a pH of 6.59. The current antifungal treatments that were tested and compared were Fluconazole (Sigma-Aldrich, Cat: PHR1160-1G, Lot LRAA6502) a Nystatin suspension (Sigma-Aldrich, Cat: N6261-SMU, Lot 020M13491V), and Gentian Violet (1% Humco, Cat: NDC 0395-1003-92, Lot547845).
(§3) The antimicrobial activity of the oral rinse solution as described above, Example 1, was tested using the micro-tube dilution method described in the Method for Determination of Broth Dilution MICs of Antifungal agents for fermentative yeasts, published by the European Committee for Antimicrobial Susceptibility Testing (EUCAST). In brief, a standard inoculum of each microorganism was prepared by diluting a 0.5 MacFarland turbidity standard of the microorganism 1:100 in RPMI media without sodium bicarbonate plus 2% glucose. Then, 100 μL of the standard inoculum was added to equal volumes of two-fold serial dilutions of the oral rinse solution or controls, and the plates were incubated at 35° C. for 48 hours. MICs were determined photometrically as the lowest antimicrobial agent concentration (last well in the dilution series) that inhibited OD530 absorbance at least 50%. Each experiment was performed three times, with each antimicrobial agent tested in duplicate or triplicate.

[3] = test system: Candida parapsilosis ATCC 22019; assay: as above; type: cell-based; conditions: 35° C., 48 hours, at least 50% OD530 inhibition; for MIC: Lodderomyces parapsilosis, ATCC22019, RPMI + 2% glucose, read-out: MIC (mg/L) Mean
Description: as §1, §2, §3

[4] = test system: Candida albicans ATCC 10231; assay: as above; type: cell-based; conditions: 35° C., 48 hours, at least 50% OD530 inhibition; for MIC: ATCC10231, RPMI + 2% glucose, read-out: MIC (mg/L) Mean
Description: as §1, §2, §3

[5] = test system: Candida glabrata ATCC 15126; assay: as above; type: cell-based; conditions: 35° C., 48 hours, at least 50% OD530 inhibition; for MIC: Nakaseomyces glabratus, ATCC15126, RPMI + 2% glucose, read-out: MIC (mg/L) Mean
Description: as §1, §2, §3

[6] = test system: Candida tropicalis ATCC 1369; assay: as above; type: cell-based; conditions: 35° C., 48 hours, at least 50% OD530 inhibition; for MIC: ATCC1369, RPMI + 2% glucose, read-out: MIC (mg/L) Mean
Description: as §1, §2, §3

[7] = test system: Issatchenkia orientalis ATCC 6258 (formerly known as Candida krusei); assay: as above; type: cell-based; conditions: 35° C., 48 hours, at least 50% OD530 inhibition; for MIC: Pichia kudriavzevii, ATCC6258, RPMI + 2% glucose, read-out: MIC (mg/L) Mean
Description: as §1, §2, §3

[8] = test system: Issatchenkia orientalis ATCC 5258 (formerly known as Candida krusei); conditions: expected control range; cited from earlier work
[9] = test system: Candida albicans ATCC 24433; assay: Broth microdilution MIC (CLSI M27), oral rinses, silver API and controls; type: cell-based; conditions: 35° C., 24 hours, at least 50% OD530 inhibition; for MIC: ATCC24433, CLSI M27, RPMI, read-out: MIC (mg/L) Mean
Method: (§4) This experiment tested two examples of the oral rinse in the treatment of three different Candida organisms associated with oral mucositis. The embodiments of the Oral Rinses tested in this experiment were: • Oral Rinse 170915-10 μg/mL silver citrate complex, 4 mg/mL acemannan, 5 mg/mL Disodium EDTA, 0.1 mg/mL Hyaluronic acid, 2 mg/mL PVP, 5.75 mg/ml of masking and cherry flavor, purified water, pH adjustment with tris(hydroxymethyl)aminomethane to a pH of 6.36. • Oral Rinse 170719-8 μg/mL silver citrate complex, 3.9 mg/mL acemannan, 5 mg/mL Disodium EDTA, 0.1 mg/mL Hyaluronic acid, 2 mg/mL PVP, 5.75 mg/ml of masking agent and cherry flavor, purified water, pH adjustment with tris(hydroxymethyl)aminomethane to a pH of 6.38.
(§5) The antimicrobial activity of two oral rinse solutions as described above, Example 2, was tested using the microtube dilution method described in the Clinical and Laboratory Standards Institute (CLSI) Reference Method for Broth Dilution Antifungal Susceptibility Testing of Yeasts, M27-4. In brief, a standard inoculum of each microorganism was prepared by diluting a 0.5 MacFarland turbidity standard of the microorganism 1:100 in RPMI media without sodium bicarbonate. Then, 100 μL of the standard inoculum was added to equal volumes of two-fold serial dilutions of the silver API (active pharmaceutical ingredient, silver citrate complex), controls, or the oral rinse solution, and the plates were incubated at 35° C. for 24 hours. MICs were determined photometrically as the lowest antimicrobial agent concentration (last well in the dilution series) that inhibited OD530 absorbance at least 50%. Each experiment was performed three times, with each antimicrobial agent tested in duplicate or triplicate.

[10] = test system: Candida parapsilosis ATCC 22019; assay: as above; type: cell-based; conditions: 35° C., 24 hours, at least 50% OD530 inhibition; for MIC: Lodderomyces parapsilosis, ATCC22019, CLSI M27, RPMI, read-out: MIC (mg/L) Mean
Method: as §4, §5

[11] = test system: Issatchenkia orientalis ATCC 5258 (formerly known as Candida krusei); assay: as above; type: cell-based; conditions: 35° C., 24 hours, at least 50% OD530 inhibition; for MIC: Pichia kudriavzevii, ATCC5258, CLSI M27, RPMI, read-out: MIC (mg/L) Mean
Method: as §4, §5

[12] = test system: Streptococcus pneumoniae ATCC 49619; conditions: expected control range; cited from earlier work
[13] = test system: Staphylococcus aureus ATCC 29213; assay: Microtube dilution MIC (CLSI M07), oral rinses vs vancomycin; type: cell-based; conditions: ATCC29213, read-out: MIC (mg/L) Mean
Description: The purpose of this experiment was to determine the potency of one embodiment of the oral rinse on three common gram-positive cocci species tested: Staphylococcus aureus, Streptococcus pneumoniae, Streptococcus pyogenes by determining the minimal inhibitory concentrations (MIC) of the oral rinse on each species. The oral rinse was compared to vancomycin, a common antibiotic used to treat various infections.
The embodiment of the oral rinses (170915 and 171003) tested in this experiment included 10 ug/mL silver citrate complex, 4 mg/mL acemannan, 5 mg/mL Disodium EDTA, 0.1 mg/mL Hyaluronic acid, 2 mg/mL PVP, […] of masking and cherry flavor, purified water, and pH adjustment with tris(hydroxymethyl)aminomethane to a pH of 6.36 and pH of 6.40, respectively. The vancomycin control (Sigma-Aldrich, Cat: PHR1160-1G, Lot LRAA9717, 5120 ppm) was reconstituted 20.5 mg/4 mL RO water.
The antimicrobial activity of this embodiment of the oral rinse solution was tested using the microtube dilution method for determining minimal inhibitory concentrations (MIC) described in the Clinical and Laboratory Standards (CLSI) Methods for Dilution Antimicrobial Susceptibility Tests for Bacteria that Grow Aerobically, M07, 11th ed, Approved January 2018. […]

[14] = test system: Staphylococcus aureus ATCC 29213; conditions: expected control range; cited from earlier work
[15] = total body contents from past cases; cited from earlier work
[16] = according to the EPA; cited from earlier work
[17] = estimated from animal studies in mice, rats, dogs, and monkeys; cited from earlier work
[18] = type: cell-based
Method: The product has been evaluated for cytotoxicity and deemed to be non-cytotoxic using a standard protocol at a GLP laboratory. […] A safety study for acemannan in humans was conducted to evaluate its effect in the treatment of oral aphthous ulcers. The initial study of 50 healthy patients received 0.5% acemannan incorporated into a Carbopol thickener applied to the oral mucosa of the lower lip three times a day for 7 days. Oral exams and kidney and liver function were evaluated prior to and at the end of the study. […] Since the present compositions are utilized as an oral rinse, acemannan is not expected to be absorbed systemically through the mucosa and will merely coat the patients' mouths. Acemannan has also previously been cleared to market in oral device products. Based on current safety data on the ingredients incorporated into the compositions and the 14-day duration of use for patients in the study, the compositions will not provide significant patient risks when dosed as intended.

healthy patients = conditions: in vivo; cited from earlier work

OC(Cn1cncn1)(Cn1cncn1)c1ccc(F)cc1F [Fluconazole]
MIC Control Range [1]: 0.5 to 4.0 µg/mL | MIC [2]: 0.5 mg/L | MIC [3]: 1.2 mg/L | MIC [4]: 1.2 mg/L | MIC [5]: 7.3 mg/L | MIC [6]: 0.5 mg/L | MIC [7]: 24 mg/L | MIC Control Range [8]: 8 to 64 µg/mL | MIC [9]: 0.583 mg/L (≈ 1.9 µM) | MIC [10]: 1.67 mg/L (≈ 5.44 µM) | MIC [11]: 14.7 mg/L (≈ 47.9 µM)

Nc1[nH]c(=O)ncc1F [Flucytosine]
MIC Control Range [1]: 0.06 to 0.25 µg/mL | MIC Control Range [8]: 4 to 16 µg/mL | MIC [9]: 0.25 mg/L (≈ 1.94 µM) | MIC [10]: 0.063 mg/L (≈ 0.488 µM) | MIC [11]: 3.67 mg/L (≈ 28.4 µM)

CN(C)c1ccc(C(=C2C=CC(=[N+](C)C)C=C2)c2ccc(N(C)C)cc2)cc1 [Gentian Violet]
MIC [2]: 0.3 mg/L | MIC [3]: 0.2 mg/L | MIC [4]: 0.3 mg/L | MIC [5]: 1.02 mg/L | MIC [6]: 0.3 mg/L | MIC [7]: 0.3 mg/L

C[C@@H]1[C@H](O)[C@@H](C)/C=C/C=C/CC/C=C/C=C/C=C/C=C/C(O[C@H]2O[C@H](C)[C@@H](O)[C@H](N)[C@@H]2O)CC2O[C@](O)(CC(O)C(O)CCC(O)CC(O)CC(O)CC(=O)O[C@H]1C)CC(O)C2C(=O)O (stereo partly shown) [Nystatin]
MIC (mg/L) Mean ([2]; RPMI + 2% glucose): 4.8 mg/L | MIC (mg/L) Mean ([3]; RPMI + 2% glucose): 2.7 mg/L | MIC (mg/L) Mean ([4]; RPMI + 2% glucose): 3.9 mg/L | MIC (mg/L) Mean ([5]; RPMI + 2% glucose): 2.7 mg/L | MIC (mg/L) Mean ([6]; RPMI + 2% glucose): 2.2 mg/L | MIC (mg/L) Mean ([7]; RPMI + 2% glucose): 5.4 mg/L

CN[C@H](CC(C)C)C(=O)N[C@H]1C(=O)N[C@@H](CC(N)=O)C(=O)N[C@H]2C(=O)N[C@H]3C(=O)N[C@H](C(=O)N[C@H](C(=O)O)c4cc(O)cc(O)c4-c4cc3ccc4O)[C@H](O)c3ccc(c(Cl)c3)Oc3cc2cc(c3O[C@@H]2O[C@H](CO)[C@@H](O)[C@H](O)[C@H]2O[C@H]2C[C@](C)(N)[C@H](O)[C@H](C)O2)Oc2ccc(cc2Cl)[C@H]1O [Vancomycin]
MIC Control Range [12]: Vancomycin (Control 0.06-0.5) mg/L | MIC [13]: 0.7 mg/L (≈ 0.483 µM) | MIC Control Range [14]: Vancomycin (Control 0.5-2.0) mg/L

[Ag] [silver]
total amount of silver required to cause argyria [15]: 3.8 to 6.4 g | safe lifetime continuous exposure [16]: 5 micrograms/kg/day | human elimination of silver from oral ingestion [17]: 90%

Silver citrate complex
MIC (mg/L) Mean ([9]; CLSI M27, RPMI): 0.234 mg/L | MIC (mg/L) Mean ([10]; CLSI M27, RPMI): 0.088 mg/L | MIC (mg/L) Mean ([11]; CLSI M27, RPMI): 0.117 mg/L

acemannan
cytotoxicity [18]: non-cytotoxic | adverse effects or allergic reactions (healthy patients): No patients reported adverse effects or allergic reactions | pre- versus post-test blood values (kidney and liver function) (healthy patients): no statistical difference
